In patent US6177592A, “Compounds” (priority 1997, dated 2001):

Columns and labels:
[1] = tested on: CEM-SS cells; assay: Survival rate of CEM-SS cells; assay type: cell-based; conditions: one day
Method: GM (0, 4, 8 or 16 μM) was added to 2×10^5 cell/ml of CEM-SS cells (ATCC CCL-119) and to CEM-SS cells infected with HIV-1IIIB (wherein not less than 90% of the CEM-SS cells were infected with the HIV-1IIIB; hereinafter, referred to as CEM-3B) incubation was conducted for one day, viable cell numbers and dead cell numbers were counted and survival cell rate was calculated.

[2] = tested on: sensitivity reaction of a delayed type; assay: Delayed type hypersensitivity (ovine erythrocyte, pedal edema); assay type: in vivo, mouse (C57BL/6); conditions: 30 and 300 mg/kg i.p., three days
Method: C57BL/6 mice (female, five weeks age, body weight about 20 g) were purchased from Nippon SLC and used for the experiment after a preliminary breeding for one week at our end. Ovine erythrocyte (manufactured by Shimizu Jikken Zairyo) which is an antigen provoking the sensitivity reaction of a delayed type was washed three times with a physiological saline solution (manufactured by Otsuka Pharmaceutical) to make […] and 203 μl of it was intraperitoneally injected to mice to subject to an antigen sensitization.
After five days from the sensitization, 40 μl of antigen which was prepared by the same manner was injected to right paw to induce an antigen whereby pedal edema was provoked. From the antigen-sensitized date, GM was intraperitoneally administered to mice (one group consisting of five mice) once daily at the dose of 30 mg/kg or 300 mg/kg for three days.
After two days from the antigen induction, volume of right paw of the mice was measured by a measuring device for pedal edema (manufactured by Ugo Basile) and used as an index for the sensitivity reaction of a delayed type. The measured value was given by calculating the increasing rate from the right paw volume of the mice measured before the antigen induction.

[3] = tested on: Jurkat cells; assay: Growth of Jurkat cells (MTT); assay type: cell-based, human; conditions: 24 hours
Method: (1) Jurkat cells (ATCC TIB-152) and Molt-3 cells (ATCC CRL-1552) which were human T cell leukemia cell stain were incubated in an RPMI 1640 medium (manufactured by Gibco BRL) containing 10% fetal calf serum (FCS, manufactured by Bio Whittaker) at 37° C. in the presence of 5% CO2 and the cells were then suspended in the above-mentioned medium containing 0, 5, 10 or 20 μM of GM to make the cell numbers 5×10^5 cells/ml followed by incubating for 24 hours. Cell growth was measured by an MTT method [Mosmann, et al.: J. Immunol. Methods, volume 65, pages 55-63 (1983)] wherein degree of cell growth was determined by the absorbance at 560 nm.

[4] = tested on: Meth A cells; assay: Meth A subcutaneous tumor growth in BALB/c mice; assay type: in vivo, mouse; conditions: 5 mg/kg/day s.c., five days; after two weeks
Method: GM was diluted with a physiological saline solution to a predetermined concentration and subjected to the following tests.
(1) Meth A cells (2×10^6 cells/mouse) were subcutaneously injected to abdomen of female BALB/c mice (body weight: about 20 g) of eight weeks age. After that, GM (5 mg/kg/day) was subcutaneously injected for consecutive five days to the same site. On the other hand, a physiological saline solution was subcutaneously injected to the control group by the same manner. After two weeks, the cancer tissues generated in abdomen of the mice were excised and their weight were measured.

[5] = tested on: carrageenan-induced pedal edema; assay: Carrageenan-induced pedal edema in Lewis rats; assay type: in vivo; conditions: Rattus norvegicus, 3 h; oral; three hours after carrageenan; read-out: dose with significant inhibition of pedal edema
Method: Carrageenan-induced pedal edema models which were animal model of chronic articular rheumatism were prepared as follows using male Lewis rats [purchased from Seac-Yoshitomi when five weeks age (body weight: about 130 g) followed by subjecting to a preliminary breeding for one week at our end] and the test drugs were evaluated.
To the rats which were fasted since 18 hours before initiation of the experiment was orally administered with 10 ml/kg of GM which was prepared with distilled water (manufactured by Otsuka Pharmaceutical) to make 10 and 100 mg/ml.
After 0.5 hour from administration of the test drug, 100 μl/rat of 1% suspension of carrageenan (manufactured by Wako) in a physiologically saline solution (manufactured by Otsuka Pharmaceutical) was injected to right paw to induce pedal edema. After three hours from the carrageenan injection, volume of right paw of the rat was measured by a pedal volume measuring device (manufactured by UGO BASILE). Incidentally, the measured value was expressed by calculating the increasing rate from the right paw volume of each rat measured before the carrageenan administration.

[6] = tested on: NIH 3T3; assay: Colony formation of NIH 3T3 cells; assay type: cell-based; conditions: 5 μM GM, nine days; control 91.7 ± 11.9
Method: NIH 3T3 cells were incubated at 37° C. under the condition of 5% CO2 in a Dulbecco-modified Eagle's medium containing 10% of calf serum.
(2) NIH 3T3 cells, the cells strains into which control vector was introduced and the cell strains into which E7 was introduced were made to grow to an extent of 50-70% confluence in a Dulbecco-modified Eagle's medium containing 10% of calf serum using a 100 mm-tissue culture plate and washed with PBS and the cells were peeled off with a 0.25% trypsin-EDTA solution and suspended in 5 ml of Dulbecco-modified Eagle's medium containing 10% of calf serum.
A part of the suspension was taken out and cell density was counted by a Neubauer's hemocytometer. Based upon the resulting data, it was diluted with a Dulbecco-modified Eagle's medium containing 10% of calf serum and planted on a tissue culture plate having a diameter of 60 mm to make 200 cells/plate and incubation was started in 3 ml of the medium. After 24 hours from the initiation of the incubation, GM was added thereto to make its concentration 5 μM. After additional 24 hours, the medium was exchanged with a fresh one and GM was added thereto to make its concentration 5 μM.
After that, the medium was exchanged with a fresh one every two to three days followed by adding GM thereto to make its concentration 5 μM. […]

[7] = tested on: Fas antigen; assay: Fas antigen expression in Jurkat cells; assay type: cell-based, human; conditions: 1-10 μM, 24 hours
Method: (2) Influence of GM on Fas antigen expression (productive induction) in Jurkat cells and Molt-3 cells was measured as follows. In a 10% FCS-containing RPMI 1640 medium containing 0, 1, 5, 10 or 20 μM of cyclopentenone or GM, 5×10^5 cell/ml of Jurkat cells or Molt-3 cells were incubated at 37° C. for 24 hours in the presence of 5% of CO2 and then subjected to a two-step immunostaining using an anti-Fas antibody (manufactured by Boehringer-Ingelheim) in accordance with a method of Munker [Munker, R.: Ann. Hematol., volume 70, pages 15-17 (1995)].
Fluorescence intensity of the stained 1×10^4 cells was measured by a flow cytometer (Orthocytron; manufactured by Ortho Diagnostic Systems) and ratio of the cell showing a predetermined or higher fluorescence intensity which were Fas antigen-expressing cells was calculated.

With `N[C@@H](CCC(=O)N[C@@H](CSC1C=C(O)C(=O)C1)C(=O)NCC(=O)O)C(=O)O` (stereo partly shown) [GM, 2-hydroxy-4-glutathion-S-yl-2-cyclopenten-1-one] the “survival rate of cells” value ([1]; 16 μM) was “the survival rate of CEM-SS cells decreased as well”, the “survival rate of cells” value ([1]; 4 or 8 μM) was “survival rate did not decrease in CEM-SS cells” and the “inhibiting action to a sensitivity reaction of a delayed type” value [2] was “significant inhibiting action to a sensitivity reaction of a delayed type”. The “effect in the growth of cells” value ([3]; 5 μM or less) was “no significant effect in the growth of cells”, the inhibition at 10 µM ([3]; Homo sapiens, 10 μM, read-out: inhibition of cell growth) was about 50% and the inhibition at 20 µM ([3]; Homo sapiens, 20 μM, read-out: inhibition of cell growth) was at least 75%. The “inhibiting action to the growth of cancer (weight of cancer tissues)” value [4] was “significant inhibiting action to the growth of cancer”, the minimal effective dose [5] was at least 100 mg/kg and the “Numbers of Colonies (Mean Value ± SD)” value [6] was 79.0 ± 2.6. For the same molecule, the “ratio of Fas antigen-expressing cells” value [7] was “the ratio of Fas antigen-expressing cells increased on a concentration-dependent manner”.
